Data on 18 compounds can be found in patent US20160200733A1, “SUBSTITUTED THIENO[2,3-B]PYRIDINE-2-CARBOXAMIDE ANALOGS AS POSITIVE ALLOSTERIC MODULATORS OF THE MUSCARINIC ACETYLCHOLINE RECEPTOR M4” (Vanderbilt University, priority 2013, published 2016).

Molecules are shown by their SMILES. pEC50: −log10 of the molar value.

The assay addresses T1, mAChR hM4 (Homo sapiens, UniProt P08173).
T1 construct: expressed in transfected cells; host or cells: CHO-K1 (Chinese hamster ovary) cells
T1 sequence (P08173 1-479): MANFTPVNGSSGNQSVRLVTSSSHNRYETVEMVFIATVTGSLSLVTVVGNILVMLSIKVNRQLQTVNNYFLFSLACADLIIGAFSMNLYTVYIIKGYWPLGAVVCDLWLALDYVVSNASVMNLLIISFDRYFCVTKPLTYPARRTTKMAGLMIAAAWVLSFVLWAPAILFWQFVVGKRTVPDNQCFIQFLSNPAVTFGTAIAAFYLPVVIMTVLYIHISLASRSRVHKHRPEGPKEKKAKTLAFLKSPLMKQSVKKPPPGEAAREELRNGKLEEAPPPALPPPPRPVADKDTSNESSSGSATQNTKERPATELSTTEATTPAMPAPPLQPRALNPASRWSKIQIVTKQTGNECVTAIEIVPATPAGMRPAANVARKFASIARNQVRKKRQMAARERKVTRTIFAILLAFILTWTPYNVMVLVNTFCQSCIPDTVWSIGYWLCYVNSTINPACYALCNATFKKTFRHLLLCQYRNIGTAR
Kind of assay: mAChR M4 cell-based functional assay (calcium flux, potentiation of EC20 acetylcholine response). The following applies: mAChR hM4 cell-line; for pEC50: >10,000 estimated for low potency compounds lacking a plateau; for Emax at 30 µM: % ACh maximum at 30 μM. Summed up:
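CHO-K1 cells expressing human M4, loaded with Fluo-4 Ca2+ dye; potentiation of an EC20 acetylcholine response read as increase in fluorescence static ratio. EC50 and Emax from concentration-dependent increase over the EC20 response.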

`Cc1nc2sc(C(=O)NC3COC3)c(-c3cccs3)c2c(C)c1Cl` [Compound 115, 5-chloro-4,6-dimethyl-N-(oxetan-3-yl)-3-(thiophen-2-yl)thieno[2,3-b]pyridine-2-carboxamide]: the pEC50 was less than 5.00.

On to `Cc1nc2sc(C(=O)NC3COC3)c(-c3ccc4nccnc4c3)c2c(C)c1Cl` [Compound 116, 5-chloro-4,6-dimethyl-N-(oxetan-3-yl)-3-(quinoxalin-6-yl)thieno[2,3-b]pyridine-2-carboxamide], for which the pEC50 was less than 5.00. Take `Cc1nc2sc(C(=O)NC3COC3)c(-c3ccsc3)c2c(C)c1Cl` [Compound 117, 5-chloro-4,6-dimethyl-N-(oxetan-3-yl)-3-(thiophen-3-yl)thieno[2,3-b]pyridine-2-carboxamide]: the pEC50 is less than 5.00. For the compound `Cc1nc2sc(C(=O)NC3CC3)c(Cl)c2c(C)c1Cl` [Compound 118, 3,5-dichloro-N-cyclopropyl-4,6-dimethylthieno[2,3-b]pyridine-2-carboxamide], the Emax at 30 µM was found to be 56% and the pEC50 is 5.82. Consider `Cc1nc2sc(C(=O)NCC3CC3)c(Cl)c2c(C)c1Cl` [Compound 119, 3,5-dichloro-N-(cyclopropylmethyl)-4,6-dimethylthieno[2,3-b]pyridine-2-carboxamide], for which the pEC50 was less than 5.00.

As for `Cc1nc2sc(C(=O)N[C@@H](C)C3CC3)c(Cl)c2c(C)c1Cl` [Compound 120, (S)-3,5-dichloro-N-(1-cyclopropylethyl)-4,6-dimethylthieno[2,3-b]pyridine-2-carboxamide], the pEC50 was less than 5.00. With `Cc1nc2sc(C(=O)N[C@H](C)C3CC3)c(Cl)c2c(C)c1Cl` [Compound 121, (R)-3,5-dichloro-N-(1-cyclopropylethyl)-4,6-dimethylthieno[2,3-b]pyridine-2-carboxamide], the pEC50 was less than 5.00. `Cc1nc2sc(C(=O)NC3(C)COC3)c(Cl)c2c(C)c1Cl` [Compound 122, 3,5-dichloro-4,6-dimethyl-N-(3-methyloxetan-3-yl)thieno[2,3-b]pyridine-2-carboxamide]: the Emax at 30 µM turned out to be 61% and the pEC50 was 5.59.

Regarding `Cc1nc2sc(C(=O)NC3CCC3)c(Cl)c2c(C)c1Cl` [Compound 123, 3,5-dichloro-N-cyclobutyl-4,6-dimethylthieno[2,3-b]pyridine-2-carboxamide], the Emax at 30 µM amounted to 34% and the pEC50 was less than 5.00.

With `Cc1nc2sc(C(=O)NC3CCOC3)c(Cl)c2c(C)c1Cl` (stereo not drawn) [Compound 124, 3,5-dichloro-4,6-dimethyl-N-(tetrahydrofuran-3-yl)thieno[2,3-b]pyridine-2-carboxamide], the Emax at 30 µM turned out to be 43% and the pEC50 is 5.92. Take `Cc1nc2sc(C(=O)NCC3(C)COC3)c(Cl)c2c(C)c1Cl` [Compound 125, 3,5-dichloro-4,6-dimethyl-N-((3-methyloxetan-3-yl)methyl)thieno[2,3-b]pyridine-2-carboxamide]: the pEC50 is less than 5.00. Consider `Cc1nc2sc(C(=O)NC3COC3)c(Cl)c2c(C)c1Cl` [Compound 126, 3,5-dichloro-4,6-dimethyl-N-(oxetan-3-yl)thieno[2,3-b]pyridine-2-carboxamide], for which the Emax at 30 µM amounted to 67% and the pEC50 is 6.28. Take `Cc1nc2sc(C(=O)NC3[C@H]4C[C@@H]3C4)c(Cl)c2c(C)c1Cl` (stereo partly drawn) [Compound 127, N-((1s,3s)-bicyclo[1.1.1]pentan-2-yl)-3,5-dichloro-4,6-dimethylthieno[2,3-b]pyridine-2-carboxamide]: the Emax at 30 µM was 35% and the pEC50 is less than 5.00. For `Cc1nc2sc(C(=O)NC3CC(F)(F)C3)c(Cl)c2c(C)c1Cl` [Compound 128, 3,5-dichloro-N-(3,3-difluorocyclobutyl)-4,6-dimethylthieno[2,3-b]pyridine-2-carboxamide], in that order: 33% and less than 5.00. Consider `Cc1nc2sc(C(=O)NCC3CCC3)c(Cl)c2c(C)c1Cl` [Compound 129, 3,5-dichloro-N-(cyclobutylmethyl)-4,6-dimethylthieno[2,3-b]pyridine-2-carboxamide], for which the pEC50 is less than 5.00. For the compound `Cc1cc(C)c2c(Br)c(C(=O)NC(C)C)sc2n1` [Example 1, 3-bromo-N-isopropyl-4,6-dimethylthieno[2,3-b]pyridine-2-carboxamide], the pEC50 is less than 5.00. As to `Cc1cc(C)c2c(Br)c(C(=O)NC3COC3)sc2n1` [Example 2, 3-bromo-4,6-dimethyl-N-(oxetan-3-yl)thieno[2,3-b]pyridine-2-carboxamide], the Emax at 30 µM turned out to be 68% and the pEC50 was 5.48. For `Cc1cc(C)c2c(Br)c(C(=O)N3CCCC3)sc2n1` [Example 3, (3-bromo-4,6-dimethylthieno[2,3-b]pyridin-2-yl)(pyrrolidin-1-yl)methanone], in that order: 44% and 5.41.
